Legend:
FADD−/− Jurkat cells = experiment: Necroptosis inhibition assay, TNF-α-induced necroptosis (CellTiter-Glo 2.0); format: cell-based, human; conditions: TNF-α 15 ng/mL; for Necroptosis inhibition assay (Rescue %) 1 μM: compound 1 μM; for Necroptosis inhibition assay (Rescue %) 10 μM: compound 10 μM
In short: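 Necroptosis was triggered by TNF-α at 15 ng/mL final following 30 minutes of compound exposure (0.1, 1 or 10 μM final). Incubation ran 20 to 24 hours at 37° C under 5% CO2; cell ATP was then quantified by luminescence.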

MLKL [1] = target: T1, MLKL (Homo sapiens, UniProt Q8NB16); experiment: MLKL degradation assay in HepG2 cell line (western blot); format: cell-based; set-up: endogenous in cells; host or cells: HepG2 or HaCaT; conditions: cell line not given; for Degradation assay (Degradation %) 1 μM: compound 1 μM; for Degradation assay (Degradation %) 10 μM: compound 10 μM
T1 sequence (Q8NB16 1-471): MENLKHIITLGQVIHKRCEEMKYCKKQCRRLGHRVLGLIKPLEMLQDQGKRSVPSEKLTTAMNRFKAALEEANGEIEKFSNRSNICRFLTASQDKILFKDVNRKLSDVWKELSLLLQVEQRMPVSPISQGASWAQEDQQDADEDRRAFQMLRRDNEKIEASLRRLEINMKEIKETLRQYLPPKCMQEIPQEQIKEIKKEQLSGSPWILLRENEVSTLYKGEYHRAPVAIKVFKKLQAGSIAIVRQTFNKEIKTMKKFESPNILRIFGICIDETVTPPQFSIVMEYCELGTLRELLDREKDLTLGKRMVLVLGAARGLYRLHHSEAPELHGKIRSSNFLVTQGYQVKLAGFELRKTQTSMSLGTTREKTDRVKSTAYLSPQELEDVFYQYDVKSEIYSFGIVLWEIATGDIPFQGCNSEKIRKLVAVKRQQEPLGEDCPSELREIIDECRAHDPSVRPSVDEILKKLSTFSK
Method: MLKL degradation ability was evaluated in the following method.
1 mL of Human liver cancer cell line (HepG2 cell line) or human skin cell line (HaCaT cell line) was equally distributed into each well at 2.0×10^5 cells/mL in a 12-well cell culture plate. On the next day, the medium was replaced with a medium made so that the final concentration of test compound was 1 or 10 μM (1 mL/well), and incubated in 5% CO2, at 37° C. for 20-24 hours (Thermo scientific, Forma steri-cycle).
For protein preparation after incubation, cells were washed with 1×TBST, and 60 μL of RIPA lysis buffer containing Halt™ Protease and Phosphatase Inhibitor Cocktail was dispensed into each well. After scraping the cells with a scraper, the cells were recovered, and the pallet was homogenized and reacted on ice for 30 minutes. After the cells were centrifuged at 13,000 rpm, 10 minutes, 4° C., the supernatant was transferred to a new E-tube. For protein quantification, after dispensing sample and BCA (0-4 mg/ml) in a 96 well plate, 100 μL of BCA was dispensed and reacted in a 37° C. incubator for 30 minutes. After measuring the absorbance (SpectraMax, M5e, 562 nm), the amount of the sample was adjusted with the same concentration of protein and 4× Laemmli sample buffer, DW, and reacted at 100° C. for 5 minutes.
After assembling the MP TGX Precast Gel in the Mini-PROTEAN Tetra Cell, the same protein (10-15 μg) was added in an 8-10 μL volume per well, 1×Tris-Glycine Buffer was added, and loading was performed. After loading was completed, transfer was performed using Pierce G2 Fast Blotter and Pierce 1-Step Transfer Buffer. After completion of the transfer, 10 ml of SuperBlock™ Blocking Buffer was dispensed and reacted at room temperature for 10 minutes. 5% BSA containing the primary antibody was dispensed and reacted over night at 4° C. The next day, washing was performed three times with 1×TBST at room temperature for 10 minutes. 5% BSA containing the secondary antibody was dispensed and reacted at room temperature for 1 hour. Washing was performed three times with 1×TBST at room temperature for 10 minutes. The amount of protein expression was measured using chemiluminescence (LuminoGraph, ATTO).

MLKL [2] = target: T1, MLKL; experiment: Measurement of binding affinity with MLKL receptor (competitive binding assay, Kd); set-up: made in house; host or cells: HEK 293 cell line (T7 phage in E. coli BL21-derived host is also described)
In short: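 qPCR of MLKL eluted from liganded beads served as the read-out, from which Kd was derived. The protein was made in HEK 293 cells with a DNA tag, and test compounds competed with the bead-bound ligand at 0.9% final DMSO.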

| SMILES | Degradation assay (Degradation %) 1 μM (MLKL [1]) | Degradation assay (Degradation %) 10 μM (MLKL [1]) | Kd (MLKL [2]) | Necroptosis inhibition assay (Rescue %) 1 μM (FADD−/− Jurkat cells) | Necroptosis inhibition assay (Rescue %) 10 μM (FADD−/− Jurkat cells) |
| --- | --- | --- | --- | --- | --- |
| Nc1ncc(-c2cnn(C3CCN(C(=O)COCCOCCNc4cccc5c4C(=O)N(C4CCC(=O)NC4=O)C5=O)CC3)c2)nc1C(=O)O[C@@H](C(=O)Nc1ccc(F)cc1)c1ccccc1 (stereo partly drawn) [TDH-104, (R)-2-((4-fluorophenyl)amino)-2-oxo-1-phenylethyl 3-amino-6-(1-(1-(2-(2-(2-((2-(2,6-dioxopiperidin-3-yl)-1,3-dioxoisoindolin-4-yl)amino)ethoxy)ethoxy)acetyl)piperidin-4-yl)-1H-pyrazol-4-yl)pyrazine-2-carboxylate] | 14.79% | 62.43% | 48 nM | 25.6% | 22.88% |
| Nc1ncc(-c2cnn(C3CCN(C(=O)COCCOCCNc4ccc5c(c4)C(=O)N(C4CCC(=O)NC4=O)C5=O)CC3)c2)nc1C(=O)O[C@@H](C(=O)Nc1ccc(F)cc1)c1ccccc1 (stereo partly drawn) [TDH-105, (R)-2-((4-fluorophenyl)amino)-2-oxo-1-phenylethyl 3-amino-6-(1-(1-(2-(2-(2-((2-(2,6-dioxopiperidin-3-yl)-1,3-dioxoisoindolin-5-yl)amino)ethoxy)ethoxy)acetyl)piperidin-4-yl)-1H-pyrazol-4-yl)pyrazine-2-carboxylate] | 43.02% | 40.8% | 6.1 nM | 27.07% | 15.46% |
| Nc1ncc(-c2cnn(C3CCN(CCOCCOCCNC(=O)C4CCN(c5cccc6c5C(=O)N(C5CCC(=O)NC5=O)C6=O)CC4)CC3)c2)nc1C(=O)O[C@@H](C(=O)Nc1ccc(F)cc1)c1ccccc1 (stereo partly drawn) [TDH-110, (R)-2-((4-fluorophenyl)amino)-2-oxo-1-phenylethyl 3-amino-6-(1-(1-(2-(2-(2-(1-(2-(2,6-dioxopiperidin-3-yl)-1,3-dioxoisoindolin-4-yl)piperidine-4-carboxamido)ethoxy)ethoxy)ethyl)piperidin-4-yl)-1H-pyrazol-4-yl)pyrazine-2-carboxylate] | 9.84% | 46.89% | 5.2 nM | 55.93% | 72.8% |
| Nc1ncc(-c2cnn(C3CCN(CCOCCOCCNC(=O)C4CCN(c5ccc6c(c5)C(=O)N(C5CCC(=O)NC5=O)C6=O)CC4)CC3)c2)nc1C(=O)O[C@@H](C(=O)Nc1ccc(F)cc1)c1ccccc1 (stereo partly drawn) [TDH-111, (R)-2-((4-fluorophenyl)amino)-2-oxo-1-phenylethyl 3-amino-6-(1-(1-(2-(2-(2-(1-(2-(2,6-dioxopiperidin-3-yl)-1,3-dioxoisoindolin-5-yl)piperidine-4-carboxamido)ethoxy)ethoxy)ethyl)piperidin-4-yl)-1H-pyrazol-4-yl)pyrazine-2-carboxylate] | 4.54% | 28.85% | 5.3 nM | 45.17% | 78.08% |

Stronger by Kd (MLKL [2]), values ahead:

| Degradation assay (Degradation %) 1 μM (MLKL [1]) | Degradation assay (Degradation %) 10 μM (MLKL [1]) | Kd (MLKL [2]) | SMILES | Necroptosis inhibition assay (Rescue %) 1 μM (FADD−/− Jurkat cells) | Necroptosis inhibition assay (Rescue %) 10 μM (FADD−/− Jurkat cells) |
| --- | --- | --- | --- | --- | --- |
| 35.85% | 29.42% | 1.9 nM | Nc1ncc(-c2cnn(C3CCN(CCCCCCNC(=O)CNc4cccc5c4C(=O)N(C4CCC(=O)NC4=O)C5=O)CC3)c2)nc1C(=O)O[C@@H](C(=O)Nc1ccc(F)cc1)c1ccccc1 (stereo partly drawn) [TDH-101, (R)-2-((4-fluorophenyl)amino)-2-oxo-1-phenylethyl 3-amino-6-(1-(1-(6-(2-((2-(2,6-dioxopiperidin-3-yl)-1,3-dioxoisoindolin-4-yl)amino)acetamido)hexyl)piperidin-4-yl)-1H-pyrazol-4-yl)pyrazine-2-carboxylate] | 50.77% | 18.45% |
| 12.94% | 42.92% | 2.1 nM | Nc1ncc(-c2cnn(C3CCN(CCOCCOCCNC(=O)CNc4cccc5c4C(=O)N(C4CCC(=O)NC4=O)C5=O)CC3)c2)nc1C(=O)O[C@@H](C(=O)Nc1ccc(F)cc1)c1ccccc1 (stereo partly drawn) [TDH-102, (R)-2-((4-fluorophenyl)amino)-2-oxo-1-phenylethyl 3-amino-6-(1-(1-(2-(2-(2-(2-((2-(2,6-dioxopiperidin-3-yl)-1,3-dioxoisoindolin-4-yl)amino)acetamido)ethoxy)ethoxy)ethyl)piperidin-4-yl)-1H-pyrazol-4-yl)pyrazine-2-carboxylate] | 39.17% | 42.99% |
| 5.5% | 52.04% | 1.4 nM | Nc1ncc(-c2cnn(C3CCN(CCOCCOCCNC(=O)CNc4ccc5c(c4)C(=O)N(C4CCC(=O)NC4=O)C5=O)CC3)c2)nc1C(=O)O[C@@H](C(=O)Nc1ccc(F)cc1)c1ccccc1 (stereo partly drawn) [TDH-103, (R)-2-((4-fluorophenyl)amino)-2-oxo-1-phenylethyl 3-amino-6-(1-(1-(2-(2-(2-(2-((2-(2,6-dioxopiperidin-3-yl)-1,3-dioxoisoindolin-5-yl)amino)acetamido)ethoxy)ethoxy)ethyl)piperidin-4-yl)-1H-pyrazol-4-yl)pyrazine-2-carboxylate] | 34.93% | 59.65% |
| 48.06% | 43.66% | 4.4 nM | Nc1ncc(-c2cnn(C3CCN(CCCCCCNC(=O)C4CCN(c5cccc6c5C(=O)N(C5CCC(=O)NC5=O)C6=O)CC4)CC3)c2)nc1C(=O)O[C@@H](C(=O)Nc1ccc(F)cc1)c1ccccc1 (stereo partly drawn) [TDH-108, (R)-2-((4-fluorophenyl)amino)-2-oxo-1-phenylethyl 3-amino-6-(1-(1-(6-(1-(2-(2,6-dioxopiperidin-3-yl)-1,3-dioxoisoindolin-4-yl)piperidine-4-carboxamido)hexyl)piperidin-4-yl)-1H-pyrazol-4-yl)pyrazine-2-carboxylate] | 75.49% | 43.94% |
| 48.55% | 56.91% | 2.8 nM | Nc1ncc(-c2cnn(C3CCN(CCCCCCNC(=O)C4CCN(c5ccc6c(c5)C(=O)N(C5CCC(=O)NC5=O)C6=O)CC4)CC3)c2)nc1C(=O)O[C@@H](C(=O)Nc1ccc(F)cc1)c1ccccc1 (stereo partly drawn) [TDH-109, (R)-2-((4-fluorophenyl)amino)-2-oxo-1-phenylethyl 3-amino-6-(1-(1-(6-(1-(2-(2,6-dioxopiperidin-3-yl)-1,3-dioxoisoindolin-5-yl)piperidine-4-carboxamido)hexyl)piperidin-4-yl)-1H-pyrazol-4-yl)pyrazine-2-carboxylate] | 71.74% | 48.69% |

Source: US20240252488A1 (KOREA RESEARCH INSTITUTE OF CHEMICAL TECHNOLOGY, priority 2020, published 2024)
